Laboratory results as given in US10202364B2, “Forms and compositions of an ERK inhibitor” (Celgene CAR LLC, priority 2014, dated 2019).
Like-named read-outs stand apart in the source and are kept apart here.

Key:
[1] = Single oral dose pharmacokinetic (PK) study in dogs, fasted and fed; assay type: in vivo; conditions: 15 mg/kg oral suspension; for AUC(0-t) / Cmax: both sexes, dog, in vivo, po, 15 mg/kg
Method: The pharmacokinetics of compound 1 (free base, administered to dosing group 1), compound 2 (phosphate salt, administered to dosing group 4), compound 4 (hydrochloride salt, administered to dosing group 2), compound 5 (bromide salt, administered to dosing group 5), and compound 6 (sulfate salt, administered to dosing group 3) were evaluated in dogs (2/sex/group) in a parallel design study. In addition, the effect of food on the systemic exposure to compounds 1, 2, 4, 5 and 6 was also evaluated. Compounds 1, 2, 4, 5 and 6 were orally administered at 15 mg/kg to dogs in a fasted state (overnight fast) on day 1 and administered under fed conditions (a meal was provided one hour prior to dosing) on day 9. Doses were administered as a suspension in 5% Captisol/0.2% Tween 80/0.05M Citrate buffer (compound 1) and 5% Captisol/0.2% Tween (compounds 2, 4, 5 and 6). Animals were habituated (days 2 to 8) to consume their entire daily ration (˜400 g) in 1 hour. Pharmacokinetic samples were collected on days 1 and 9 at 0, 0.5, 1, 2, 4, 6, 8, 12, and 24 hours after dosing.

[2] = Free base competitive slurries / form conversion (XRPD and DSC); assay type: physicochemical; conditions: compound 1 free base, stirred in methanol at room temperature for 24 hours
Method: Free Base Competitive Slurries:
Three competitive slurry experiments were performed:
1: Form A (20.0 mg)+Form C (20.4 mg) in 0.4 ml ethyl acetate
2: Form B (15.7 mg)+Form C (15.6 mg) in 0.3 ml ethyl acetate
3: Form A (13.3 mg)+Form B (11.5 mg) in 0.3 ml ethyl acetate
The three slurries were stirred vigorously for three days. Solids were then filtered and dried.
About 20 mg Form C was stirred in methanol (˜2 mL) at room temperature for 24 hours. Solids were filtered and dried.

[3] = Solubility in water at ambient temperature; assay type: physicochemical; conditions: for pH at 48 hrs: pH of the solubility sample in water at 48 hrs; for Conc. (μg/mL) at 24 hours / Conc. (μg/mL) at 48 hours: water, ambient temperature, free base-equivalent value, HPLC/UV; for Conc. (μg/mL) at 24 hours: shaken 24 hours; for Conc. (μg/mL) at 48 hours: shaken 48 hours
Method: Each of compounds 1 through 9 were weighed into separate 8 mL clear glass vials. After addition of 3.2 mL of water, the vials were capped and shaken on an orbital shaker at 300 RPM at ambient temperature for 24 hours. The samples were removed from the shaker and the pH of each was measured using a calibrated pH meter. Next, a portion of the each sample was withdrawn and filtered using a PVDF-membrane syringe filter. The filtrate was analyzed using HPLC/UV with appropriate dilution. The solubility was reported as free base-equivalent value because the free base was used as the standard for HPLC analysis. The rest of the samples were shaken for another 24 hours for 48-hour solubility measurement using the same procedure. After the 48-hour solubility tests were run, the solid residues were recovered through filtration using 0.2 μm Nylon-membrane centrifuge tube filters at 14000 RPM for 5 min and analyzed using XRPD.
For the bis-phosphate complex and bis-sulfate salt, measurements were only performed at the 24-hour time point.

[4] = test system: one or both of ERK1 and ERK2 kinases; conditions: see Table A of the '230 publication; cited from earlier work
[5] = Hygroscopicity by Dynamic Vapor Sorption (DVS); assay type: physicochemical; conditions: at 95% relative humidity
Method: Hygroscopicity was determined on a Surface Measurement Systems DVS-1 or DVS-Advantage Dynamic Vapor Sorption analyzer. A typical sample size of 5 to 20 mg was loaded into the DVS instrument sample pan and the sample was analyzed on a DVS automated sorption analyzer at room temperature. The relative humidity (RH) was increased from 0 or 5% to 90 or 95% RH at 5 or 10% RH steps. The RH was then decreased in a similar manner to accomplish a full absorption/desorption cycle. In some cases a second absorption/desorption cycle was performed.

[6] = Phosphate interconversions from polymorph screen (slurries, XRPD); assay type: physicochemical; conditions: RT, 5 days
From the text: Phosphate Interconversions

[7] = fasted, day 1, mean, read-out: AUClast, Day 1 (Fasted)
[8] = fasted, day 1, mean, read-out: Cmax, Day 1 (Fasted)
[9] = fed, day 9, mean, read-out: AUClast, Day 9 (Fed)
[10] = fed, day 9, mean, read-out: Cmax, Day 9 (Fed)

## C=CC(=O)Nc1cc(C)ccc1Nc1nc(Nc2cc(OC)ncc2C)ncc1C(F)(F)F [Compound 1, Form C, N-(2-((2-((2-methoxy-5-methylpyridin-4-yl)amino)-5-(trifluoromethyl)pyrimidin-4-yl)amino)-5-methylphenyl)acrylamide]
[1]; fasted, day 1, mean
  AUClast, Day 1 (Fasted): 286 ng·h/mL
  Cmax, Day 1 (Fasted): 0.0981 µg/mL
[1]; fed, day 9, mean
  AUClast, Day 9 (Fed): 1890 ng·h/mL
  Cmax, Day 9 (Fed): 0.293 µg/mL
[2]
  form after slurry (XRPD and DSC): converted to Form B

## C=CC(=O)Nc1cc(C)ccc1Nc1nc(Nc2cc(OC)ncc2C)ncc1C(F)(F)F [Compound 1, N-(2-((2-((2-methoxy-5-methylpyridin-4-yl)amino)-5-(trifluoromethyl)pyrimidin-4-yl)amino)-5-methylphenyl)acrylamide]
[3]
  pH at 48 hrs: 6.33
  Conc. (μg/mL) at 24 hours: 0.07 µg/mL
  Conc. (μg/mL) at 48 hours: 0.05 µg/mL
[4]
  inhibition of one or both of ERK1 and ERK2 kinases: covalent, irreversible inhibition

## C=CC(=O)Nc1cc(C)ccc1Nc1nc(Nc2cc(OC)ncc2C)ncc1C(F)(F)F.O=P(O)(O)O [Compound 2, Form A]
[5]
  water uptake: Up to 3.8%
[1]; [7]
  AUC(0-t): 1080 ng·h/mL
[1]; [8]
  Cmax: 0.345 µg/mL
[1]; [9]
  AUC(0-t): 3880 ng·h/mL
[1]; [10]
  Cmax: 0.79 µg/mL

## C=CC(=O)Nc1cc(C)ccc1Nc1nc(Nc2cc(OC)ncc2C)ncc1C(F)(F)F.O=P(O)(O)O [Compound 2]
[3]
  pH at 48 hrs: 2.48
  Conc. (μg/mL) at 24 hours: 19.40 µg/mL
  Conc. (μg/mL) at 48 hours: 91.69 µg/mL

## C=CC(=O)Nc1cc(C)ccc1Nc1nc(Nc2cc(OC)ncc2C)ncc1C(F)(F)F [Compound 3]
[3]
  Conc. (μg/mL) at 24 hours: 113 µg/mL

## C=CC(=O)Nc1cc(C)ccc1Nc1nc(Nc2cc(OC)ncc2C)ncc1C(F)(F)F.Cl [Compound 4, Form A]
[1]; [7]
  AUC(0-t): 856 ng·h/mL
[1]; [8]
  Cmax: 0.323 µg/mL
[1]; [9]
  AUC(0-t): 3350 ng·h/mL
[1]; [10]
  Cmax: 0.818 µg/mL

## C=CC(=O)Nc1cc(C)ccc1Nc1nc(Nc2cc(OC)ncc2C)ncc1C(F)(F)F.Cl [Compound 4]
[3]
  pH at 48 hrs: 2.29
  Conc. (μg/mL) at 24 hours: 162.33 µg/mL
  Conc. (μg/mL) at 48 hours: 134.08 µg/mL

## Br.C=CC(=O)Nc1cc(C)ccc1Nc1nc(Nc2cc(OC)ncc2C)ncc1C(F)(F)F [Compound 5, Form A]
[1]; [7]
  AUC(0-t): 1680 ng·h/mL
[1]; [8]
  Cmax: 0.393 µg/mL
[1]; [9]
  AUC(0-t): 5030 ng·h/mL
[1]; [10]
  Cmax: 0.826 µg/mL

## Br.C=CC(=O)Nc1cc(C)ccc1Nc1nc(Nc2cc(OC)ncc2C)ncc1C(F)(F)F [Compound 5]
[3]
  pH at 48 hrs: 2.27
  Conc. (μg/mL) at 24 hours: 190.63 µg/mL
  Conc. (μg/mL) at 48 hours: 207.42 µg/mL

## C=CC(=O)Nc1cc(C)ccc1Nc1nc(Nc2cc(OC)ncc2C)ncc1C(F)(F)F [Compound 6, Form A]
[1]; fasted, day 1, mean
  AUClast, Day 1 (Fasted): 1120 ng·h/mL
  Cmax, Day 1 (Fasted): 0.364 µg/mL
[1]; fed, day 9, mean
  AUClast, Day 9 (Fed): 5590 ng·h/mL
  Cmax, Day 9 (Fed): 0.74 µg/mL

## C=CC(=O)Nc1cc(C)ccc1Nc1nc(Nc2cc(OC)ncc2C)ncc1C(F)(F)F [Compound 6]
[3]
  pH at 48 hrs: 1.98
  Conc. (μg/mL) at 24 hours: 560.02 µg/mL
  Conc. (μg/mL) at 48 hours: 409.83 µg/mL

## C=CC(=O)Nc1cc(C)ccc1Nc1nc(Nc2cc(OC)ncc2C)ncc1C(F)(F)F [Compound 7]
[3]
  Conc. (μg/mL) at 24 hours: 1170 µg/mL

## C=CC(=O)Nc1cc(C)ccc1Nc1nc(Nc2cc(OC)ncc2C)ncc1C(F)(F)F.Cc1ccc(S(=O)(=O)O)cc1 [Compound 8]
[3]
  pH at 48 hrs: 2.00
  Conc. (μg/mL) at 24 hours: 218.34 µg/mL
  Conc. (μg/mL) at 48 hours: 184.83 µg/mL

## C=CC(=O)Nc1cc(C)ccc1Nc1nc(Nc2cc(OC)ncc2C)ncc1C(F)(F)F.O=S(=O)(O)c1ccccc1 [Compound 9]
[3]
  pH at 48 hrs: 2.10
  Conc. (μg/mL) at 24 hours: 173.63 µg/mL
  Conc. (μg/mL) at 48 hours: 143.49 µg/mL

## C=CC(=O)Nc1cc(C)ccc1Nc1nc(Nc2cc(OC)ncc2C)ncc1C(F)(F)F.O=P(O)(O)O [Form B]
[6]; slurry in EtOH
  XRPD Result: Form A + free base
[6]; slurry in MeCN
  XRPD Result: Form A
[6]; slurry in MeCN/water (1:1)
  XRPD Result: free base (Form D)
[6]; slurry in MeOH
  XRPD Result: free base (Form B)
[6]; slurry in acetone
  XRPD Result: Form A
